# According to US6946125B2, “Methods of treating West Nile virus infection” (The New York Hospital Medical Center of Queens, priority 2000, dated 2005):
# Columns and labels:
# [1] = after 600 mg given every 6 hours; cited from earlier work
# mice [2] = settings: cited from earlier work
# mice [3] = experiment: Mutagenicity of ribavirin in mice; settings: from mice
# West Nile virus (WNV) = experiment: Suppression of West Nile virus in Vero cell culture, colorimetric assay of cellular lactic dehydrogenase (O.D. 490); settings: for Mean O.D. 490 value: Vero cells
# Protocol: The vertical axis represents a colorimetric assay of cellular lactic dehydrogenase which is directly proportional to cell viability and proliferation.
# (§1) In vitro: Studies have been conducted utilized a bovine kidney cell monolayer infected with a strain of WNV isolated from mosquitoes and birds in Connecticut. Cytotoxicity was assayed by measuring the decrease in release of lactate dehydrogenase from infected cells, as compared with uninfected controls.
# [4] = test system: green monkey kidney cells; experiment: Cytotoxic effect of ribavirin in cell culture; assay type: cell-based
# Protocol: as §1
# [5] = cited from earlier work
smiles,measurement,setting,value
"NC(=O)c1ncn([C@@H]2O[C@H](CO)[C@@H](O)[C@H]2O)n1 [Ribavirin, 1-β-D-ribofuranosyl-1H-1,2,4-triazole-3-carboxamide, reference compound]",concentration in human serum,[1],1000 ng/mL
same,dose known to be mutagenic,mice [2],20 to 200 mg/kg
same,estimated human equivalent of mutagenic dose,mice [3],1.67 to 16.7 mg/kg
same,Mean O.D. 490 value,West Nile virus (WNV); Ribavirin 0.2 uM applied 2 hours prior to infection of cells with WNV,0.72c
same,Mean O.D. 490 value,West Nile virus (WNV); Ribavirin 0.3 uM applied 2 hours prior to infection of cells with WNV,1.11a
same,Mean O.D. 490 value,West Nile virus (WNV); Ribavirin 0.4 uM applied 2 hours prior to infection of cells with WNV,1.24b
same,Mean O.D. 490 value,West Nile virus (WNV); Ribavirin 0.5 uM applied 2 hours prior to infection of cells with WNV,1.24b
same,Mean O.D. 490 value,West Nile virus (WNV); Ribavirin 0.6 uM applied 2 hours prior to infection of cells with WNV,1.06a
same,concentration protective or prophylactic against infection,West Nile virus (WNV); WNV infection of bovine kidney cells in vitro,400 µM
same,concentration that suppressed viral replication,West Nile virus (WNV); applied after infection,500 µM
same,activity in vitro against WNV infection,West Nile virus (WNV); bovine kidney cells,active
same,protective concentration expressed as mass concentration,West Nile virus (WNV); equivalent of 400 uM,approximately 100 ug/ml
same,concentration at which a cytotoxic effect occurred,[4],600 to 1000 µM
same,dose at which inhibition of erythrocyte release from bone marrow occurs,[5]; high doses,30 mg/kg
same,reduction from baseline hematocrit,"[5]; human, in vivo",≤ 20%
same,reduction in baseline hemoglobin,"[5]; human, in vivo",10-12%
same,toxicity (in words),"[5]; human, in vivo",hemolysis
same,Bioavailability,[5]; patients with renal dysfunction,increased
same,teratogenicity,"[5]; should not be given during, or within 6 months of pregnancy",teratogenic
